Source: patent US20240199623A1 (ILDONG PHARMACEUTICAL CO., LTD., priority 2020, published 2024)

Columns and labels:
Human recombinant PDE4D2 = biological target: T1, Human recombinant PDE4D2 (Homo sapiens, UniProt Q08499); test: Human phosphodiesterase 4 (PDE4) inhibition, PDE4D2; assay type: biochemical; conditions: read-out: % inhibition range at 10 uM PDE4D2; 10 uM test compound
T1 construct: purchased BPS Bioscience; host or cells: insect Sf9 cells
Method: (§1) […] Human recombinant PDE4A1A, PDE4B 1, PDE4C1 and PDE4D2 are respectively expressed in each host cell (insect Sf9 cells, BPS Bioscience). Preincubation of 10 μM test compounds or vehicle was proceeded with 20 ng/ml PDE4A1A or 4 ng/ml PDE4B 1 or 8 ng/ml PDE4C1 or 5 ng/ml PDE4D2 enzyme in Tris-HCl buffer pH 7.2 for 15 minutes at 25° C. 100 nM fluorescein (FAM) labeled cAMP for another 30 minutes incubation period was added in order to initiate the enzymatic reaction and addition of IMAP binding solution was followed for its termination. Specifically, IMAP complexes with phosphate groups on nucleotide monophosphate generated from cyclic nucleotides through PDE activity. The amount of complex formed is determined by reading spectrofluorimetrical signal at 470 nm/525 nm.

Human recombinant PDE4C1 = biological target: T2, Human recombinant PDE4C1 (Homo sapiens, UniProt Q08493); test: Human phosphodiesterase 4 (PDE4) inhibition, PDE4C1; assay type: biochemical; conditions: read-out: % inhibition range at 10 uM PDE4C1; 10 uM test compound
T2 construct: purchased BPS Bioscience; host or cells: insect Sf9 cells
T2 sequence (Q08493 whole entry): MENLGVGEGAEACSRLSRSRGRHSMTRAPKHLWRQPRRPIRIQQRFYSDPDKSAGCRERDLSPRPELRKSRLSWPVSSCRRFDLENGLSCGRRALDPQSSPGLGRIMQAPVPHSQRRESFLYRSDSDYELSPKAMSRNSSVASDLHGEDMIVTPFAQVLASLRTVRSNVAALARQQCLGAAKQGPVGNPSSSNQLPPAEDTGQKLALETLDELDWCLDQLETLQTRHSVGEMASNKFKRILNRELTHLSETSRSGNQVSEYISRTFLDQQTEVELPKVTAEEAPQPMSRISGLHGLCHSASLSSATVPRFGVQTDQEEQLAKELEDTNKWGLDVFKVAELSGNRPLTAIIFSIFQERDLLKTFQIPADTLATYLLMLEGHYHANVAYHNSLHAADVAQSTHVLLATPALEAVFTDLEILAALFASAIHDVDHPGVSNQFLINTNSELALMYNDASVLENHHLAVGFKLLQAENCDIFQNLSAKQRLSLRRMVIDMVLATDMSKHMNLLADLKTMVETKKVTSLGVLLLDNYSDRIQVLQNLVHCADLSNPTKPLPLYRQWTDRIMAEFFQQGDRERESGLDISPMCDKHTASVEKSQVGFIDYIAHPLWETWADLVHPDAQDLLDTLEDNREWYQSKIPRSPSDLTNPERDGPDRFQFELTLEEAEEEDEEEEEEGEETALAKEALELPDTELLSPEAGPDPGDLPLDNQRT
Method: as §1

[1] = biological target: T3, Human recombinant PDE4B 1 (Homo sapiens, UniProt Q07343); test: Human phosphodiesterase 4 (PDE4) inhibition, PDE4B 1; assay type: biochemical; conditions: read-out: % inhibition range at 10 uM PDE4B1; 10 uM test compound
T3 construct: purchased BPS Bioscience; host or cells: insect Sf9 cells
T3 sequence (Q07343 whole entry): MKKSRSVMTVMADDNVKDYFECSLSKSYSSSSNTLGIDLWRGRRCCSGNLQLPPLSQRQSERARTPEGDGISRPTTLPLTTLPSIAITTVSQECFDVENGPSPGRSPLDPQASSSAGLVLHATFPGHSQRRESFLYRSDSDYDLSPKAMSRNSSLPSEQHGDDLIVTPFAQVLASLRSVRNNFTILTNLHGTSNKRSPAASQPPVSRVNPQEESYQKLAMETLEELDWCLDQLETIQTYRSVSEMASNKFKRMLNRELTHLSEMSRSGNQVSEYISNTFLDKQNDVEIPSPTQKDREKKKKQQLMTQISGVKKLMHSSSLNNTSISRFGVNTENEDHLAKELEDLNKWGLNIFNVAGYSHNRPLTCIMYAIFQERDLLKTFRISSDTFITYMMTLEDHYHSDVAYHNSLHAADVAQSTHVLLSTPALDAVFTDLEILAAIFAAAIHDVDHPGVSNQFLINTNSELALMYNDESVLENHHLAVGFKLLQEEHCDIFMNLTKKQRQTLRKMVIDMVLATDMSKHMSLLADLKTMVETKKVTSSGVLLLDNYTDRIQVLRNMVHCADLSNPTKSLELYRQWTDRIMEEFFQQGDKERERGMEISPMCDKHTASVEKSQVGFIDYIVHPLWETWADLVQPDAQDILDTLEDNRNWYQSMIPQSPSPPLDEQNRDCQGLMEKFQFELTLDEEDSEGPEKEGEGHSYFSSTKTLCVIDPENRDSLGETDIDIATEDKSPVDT
Method: as §1

human wild type-CFTR [2] = biological target: T4, human wild type-CFTR (Homo sapiens, UniProt P13569); test: Cell-based YFP assay; parameters: expressed in transfected cells; host or cells: CHO-K1 (Chinese hamster ovary); conditions: CHO-K1 cells expressing human wild type-CFTR and YFP-H148Q/I152L; forskolin 20 μM = 100% activity; read-out: Cell-based YFP Assay (EC50) Concentration Range
T4 sequence (P13569 whole entry): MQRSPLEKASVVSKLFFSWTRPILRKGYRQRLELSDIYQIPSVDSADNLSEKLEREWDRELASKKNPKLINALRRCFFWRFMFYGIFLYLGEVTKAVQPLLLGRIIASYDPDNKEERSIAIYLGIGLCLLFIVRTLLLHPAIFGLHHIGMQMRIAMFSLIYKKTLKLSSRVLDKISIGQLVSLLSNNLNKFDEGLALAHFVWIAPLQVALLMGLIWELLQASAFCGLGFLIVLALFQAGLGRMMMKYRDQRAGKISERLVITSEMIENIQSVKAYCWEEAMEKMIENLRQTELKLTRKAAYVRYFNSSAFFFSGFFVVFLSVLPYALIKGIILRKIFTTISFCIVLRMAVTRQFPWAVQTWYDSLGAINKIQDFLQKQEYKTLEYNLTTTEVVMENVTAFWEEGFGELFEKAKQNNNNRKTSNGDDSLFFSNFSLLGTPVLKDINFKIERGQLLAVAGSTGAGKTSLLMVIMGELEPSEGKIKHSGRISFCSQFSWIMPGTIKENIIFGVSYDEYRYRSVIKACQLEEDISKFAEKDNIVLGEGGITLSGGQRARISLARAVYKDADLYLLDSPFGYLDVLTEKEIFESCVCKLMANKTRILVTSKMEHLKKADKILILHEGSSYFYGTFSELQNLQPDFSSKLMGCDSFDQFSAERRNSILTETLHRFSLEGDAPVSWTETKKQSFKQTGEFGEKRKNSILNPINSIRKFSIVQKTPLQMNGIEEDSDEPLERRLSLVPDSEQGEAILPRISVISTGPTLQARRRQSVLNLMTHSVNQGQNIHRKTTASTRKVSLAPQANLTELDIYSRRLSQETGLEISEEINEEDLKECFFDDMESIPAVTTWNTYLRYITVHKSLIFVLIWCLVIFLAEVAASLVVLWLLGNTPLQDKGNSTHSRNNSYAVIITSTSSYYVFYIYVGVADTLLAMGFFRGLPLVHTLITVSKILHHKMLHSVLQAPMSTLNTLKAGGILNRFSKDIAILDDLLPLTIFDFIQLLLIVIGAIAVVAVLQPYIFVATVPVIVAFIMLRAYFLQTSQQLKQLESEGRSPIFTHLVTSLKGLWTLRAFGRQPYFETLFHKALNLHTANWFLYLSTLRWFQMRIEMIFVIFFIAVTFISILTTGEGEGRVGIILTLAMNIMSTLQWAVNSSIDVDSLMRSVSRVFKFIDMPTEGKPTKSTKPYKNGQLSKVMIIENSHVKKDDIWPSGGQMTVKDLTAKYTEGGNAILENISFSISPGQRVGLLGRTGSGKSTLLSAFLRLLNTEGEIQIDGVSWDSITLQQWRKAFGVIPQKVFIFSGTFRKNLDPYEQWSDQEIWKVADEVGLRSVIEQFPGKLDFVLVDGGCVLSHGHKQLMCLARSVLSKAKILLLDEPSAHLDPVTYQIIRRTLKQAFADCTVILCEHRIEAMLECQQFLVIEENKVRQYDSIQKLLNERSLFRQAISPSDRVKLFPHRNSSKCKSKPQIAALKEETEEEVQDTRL
In short: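 CHO-K1 cells co-expressing human wild-type CFTR and YFP-H148Q/I152L halide sensor, grown 48 h at 37 °C, then in PBS. YFP quenching by I⁻ influx read at 37 °C after adding 140 mM I⁻ solution, sampled every 0.4 s for 14 s. Triplicates averaged; EC50 fitted.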

[3] = biological target: T5, Human recombinant PDE4A1A (Homo sapiens, UniProt P27815); test: Human phosphodiesterase 4 (PDE4) inhibition, PDE4A1A; assay type: biochemical; conditions: read-out: % inhibition range at 10 uM PDE4A1A; 10 uM test compound
T5 construct: purchased BPS Bioscience; host or cells: insect Sf9 cells
T5 sequence (P27815 1-647 isoform P27815-4): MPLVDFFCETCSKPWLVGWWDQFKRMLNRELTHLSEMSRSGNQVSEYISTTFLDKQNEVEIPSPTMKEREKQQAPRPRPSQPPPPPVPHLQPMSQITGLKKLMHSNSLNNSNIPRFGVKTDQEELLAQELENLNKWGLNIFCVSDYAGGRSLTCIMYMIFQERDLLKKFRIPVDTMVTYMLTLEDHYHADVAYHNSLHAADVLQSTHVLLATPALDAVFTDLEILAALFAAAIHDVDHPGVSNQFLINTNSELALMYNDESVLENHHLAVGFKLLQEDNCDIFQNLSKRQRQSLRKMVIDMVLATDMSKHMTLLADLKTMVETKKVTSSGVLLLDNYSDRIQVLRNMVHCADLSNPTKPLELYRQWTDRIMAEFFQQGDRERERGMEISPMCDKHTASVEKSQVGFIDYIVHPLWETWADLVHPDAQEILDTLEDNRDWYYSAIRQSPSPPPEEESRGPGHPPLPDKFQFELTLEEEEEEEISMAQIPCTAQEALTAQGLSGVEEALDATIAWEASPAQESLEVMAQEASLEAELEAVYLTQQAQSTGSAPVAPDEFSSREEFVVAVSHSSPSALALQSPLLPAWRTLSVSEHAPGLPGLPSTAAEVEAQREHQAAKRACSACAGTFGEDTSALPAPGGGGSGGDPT
Method: as §1

[4] = Phosphate-buffered saline (PBS) solubility of compounds; assay type: physicochemical; conditions: aqueous buffer, thermodynamic from solid, PBS pH 7.5, 0.5 mg/mL, vortexed 90 min, filtered, LC-MS/MS, read-out: Solubility Range
Method: PBS solutions (pH 7.5) were prepared according to the following compositions and stored at 4° C. Test compounds were dissolved in PBS (pH 7.5) at 0.5 mg/mL and vortexed for 90 min. The PBS solution was sequentially filtered through a 0.45, 1.2, […] syringe filter. Concentration of test compounds were determined using LC-MS/MS with appropriate dilution of the samples.

human wild type-CFTR [5] = biological target: T4, human wild type-CFTR; test: Short-circuit current measurement; assay type: cell-based; parameters: expressed in transfected cells; conditions: FRT cells expressing human wild type-CFTR; Forskolin 20 μM signal used as 100% activity; read-out: Short-circuit current measurement (EC50) Concentration range
In short: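 Ussing-chamber short-circuit current in FRT cells expressing human wild-type CFTR, grown on Snapwell inserts. Forskolin, test compounds and CFTRinh-172 added to both apical and basolateral baths; apical membrane current and Isc sampled at 4 Hz.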

C57BL/6 female mice = test: Scopolamine induced tear volume reduction model; assay type: in vivo, mouse; conditions: scopolamine-injected mice, ophthalmic solution topically on both eyes 3 times a day, phenol red thread; average if evaluated twice
Method: Seven-week old C57BL/6 female mice were used.
Scopolamine hydrobromide was purchased from Sigma Aldrich (Cat No. S0929), dissolved in saline, and sterilized prior to use.
Zone-Quick phenol red thread was obtained from Menicon.
The test compounds used in this experiment were dissolved in PBS containing 1% of surfactant.
Scopolamine (0.2 ml of 2.5 mg/mL solution) was injected subcutaneously 3 times a day to induce a decrease in the tear volume in the mouse. At the same time, the ophthalmic solution of test compounds or vehicle were topically administered onto both eyes 3 times a day. Tear volume was measured by phenol red thread before dosing (basal level) and 1 hour after the last administration of scopolamine and ophthalmic solution. The results were obtained by measuring the length of the phenol red thread turning red by tears. The schedule of study is expressed as FIG. 1.
If the test compound was evaluated twice, the average value was used.

T1 sequence (Q08499 303-809 limits assumed): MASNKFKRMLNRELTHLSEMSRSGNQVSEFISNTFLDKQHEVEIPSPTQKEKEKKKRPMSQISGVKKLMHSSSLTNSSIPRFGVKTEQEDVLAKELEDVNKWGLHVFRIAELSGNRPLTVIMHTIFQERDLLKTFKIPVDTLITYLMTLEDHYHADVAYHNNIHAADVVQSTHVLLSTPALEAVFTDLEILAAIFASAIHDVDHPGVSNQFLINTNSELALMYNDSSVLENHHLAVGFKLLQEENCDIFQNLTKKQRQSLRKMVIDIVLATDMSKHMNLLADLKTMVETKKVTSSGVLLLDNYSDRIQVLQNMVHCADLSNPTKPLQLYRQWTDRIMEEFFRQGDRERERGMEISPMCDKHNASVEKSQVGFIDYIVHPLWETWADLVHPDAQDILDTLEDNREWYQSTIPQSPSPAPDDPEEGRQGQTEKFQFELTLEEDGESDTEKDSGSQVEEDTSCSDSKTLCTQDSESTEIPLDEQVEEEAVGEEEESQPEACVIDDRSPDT

| Compound | inhibition at 10 µM (Human recombinant PDE4D2) | inhibition at 10 µM (Human recombinant PDE4C1) | inhibition at 10 µM [1] | EC50 (human wild type-CFTR [2]) | inhibition at 10 µM [3] | solubility at 90 min [4] | EC50 (human wild type-CFTR [5]) | Ratio of tear volume (test compound to vehicle) (C57BL/6 female mice) |
| --- | --- | --- | --- | --- | --- | --- | --- | --- |
| COC(=O)c1ccc(NC(=O)c2cc3ncc(-c4ccc(OC)c(OC)c4)cn3n2)cc1 [Compound 239, methyl 4-(6-(3,4-dimethoxyphenyl)pyrazolo[1,5-a]pyrimidine-2-carboxamido)benzoate] | < 50% | < 50% | < 50% | ≥ 2000 nM | < 50% | – | – | – |
| COc1ccc(-c2ccnc3cc(C(=O)N4CC[C@@H](NC(=O)c5ccccc5)C4)nn23)cc1OC [Compound 384, (R)-N-(1-(7-(3,4-dimethoxyphenyl)pyrazolo[1,5-a]pyrimidine-2-carbonyl)pyrrolidin-3-yl)benzamide] | > 80% | 50 to 80% | > 80% | < 200 nM | > 80% | – | – | – |
| COc1ccc(-c2ccnc3cc(C(=O)Nc4ccc(N5CCOCC5)cc4)nn23)cc1OC [Compound 194, 7-(3,4-dimethoxyphenyl)-N-(4-morpholinophenyl)pyrazolo [1,5-a]pyrimidine-2-carboxamide] | > 80% | > 80% | > 80% | < 200 nM | > 80% | – | – | – |
| COc1ccc(-c2ccnc3cc(C(=O)N4CCN(C(=O)c5ccccn5)[C@@H](C)C4)nn23)cc1OC [Compound 380, (S)-(7-(3,4-dimethoxyphenyl)pyrazolo[1,5-a]pyrimidin-2-yl) (3-methyl-4-picolinoylpiperazin-1-yl)methanone] | > 80% | 50 to 80% | > 80% | < 200 nM | > 80% | – | – | – |
| CCOc1ccc(C(=O)Nc2cc3nccc(-c4ccc(OC)c(OC)c4)n3n2)cc1 [Compound 287, N-(7-(3,4-dimethoxyphenyl)pyrazolo[1,5-a]pyrimidin-2-yl)-4-ethoxybenzamide] | 50 to 80% | < 50% | 50 to 80% | 200 to 2000 nM | 50 to 80% | – | – | – |
| CCOc1ccc(NC(=O)c2cc3nccc(-c4ccc(OC)nc4)n3n2)cc1 [Compound 323, N-(4-ethoxyphenyl)-7-(6-methoxypyridin-3-yl) pyrazolo[1,5-a]pyrimidine-2-carboxamide] | < 50% | < 50% | 50 to 80% | ≥ 2000 nM | < 50% | – | – | – |
| COC(=O)c1ccc(NC(=O)c2cc3nccc(-c4ccc(OC)c(OC)c4)n3n2)cc1OC [Compound 192, methyl 4-(7-(3,4-dimethoxyphenyl)pyrazolo [1,5-a]pyrimidine-2-carboxamido)-2-methoxybenzoate] | > 80% | > 80% | > 80% | < 200 nM | > 80% | – | – | – |
| COc1ccc(-c2ccnc3cc(C(=O)N4CCN(C(=O)c5cccs5)[C@@H](C)C4)nn23)cc1OC [Compound 352, (S)-(7-(3,4-dimethoxyphenyl)pyrazolo[1,5-a]pyrimidin-2-yl)(3-methyl-4-(thiophene-2-carbonyl)piperazin-1-yl) methanone] | > 80% | > 80% | > 80% | < 200 nM | > 80% | – | – | – |
| COc1ccc(-c2ccnc3cc(C(=O)N4CCN(S(=O)(=O)c5ccccc5)[C@@H](C)C4)nn23)cc1OC [Compound 355, (S)-(7-(3,4-dimethoxy-phenyl)pyrazolo[1,5-a]pyrimidin-2-yl)(3-methyl-4-(phenylsulfonyl)piperazin-1-yl)methanone] | > 80% | > 80% | > 80% | < 200 nM | > 80% | – | – | – |
| COc1ccc(-c2ccnc3cc(C(=O)NC45CCC(C(=O)N6CCOCC6)(CC4)CC5)nn23)cc1OC [Compound 186, 7-(3,4-dimethoxyphenyl)-N-(4-(morpholine-4-carbonyl)bicyclo[2.2.2]octan-1-yl)pyrazolo[1,5-a] pyrimidine-2-carboxamide] | – | – | – | < 200 nM | – | > 10 µg/mL | 200 to 2000 nM | 1.05 |
